The target in assay [1] is human TYK2 (JH2domain-pseudokinase) (Homo sapiens (Human), UniProt P29597). Put plainly: TYK2 JH2 Domain Binding Assay (KINOMEscan). The gist of the method:
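Competition binding of an NFkB-DBD fusion of human TYK2 JH2 (G556–D888), expressed in HEK293 and used as crude extract at <0.1 nM, against immobilized ligand beads; 1 h at room temperature in PBS/Tween/DTT/BSA buffer, 0.9% DMSO.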

The next assay concerns the target Tyk2 kinase domain (DH1) (Homo sapiens (Human), UniProt P29597). Put plainly: Tyk2 Radioactive Kinase Assay. Type of assay: biochemical. As to conditions: read-out: Tyk2 JH1% Inhibition @ 10 μM. Summed up:
(§1)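 Single-point screen: 10 μM test compound, radioactive kinase read-out, percent inhibition reported for each kinase domain.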

For another assay, the target named is JAK2 kinase domain (JH1) (Homo sapiens (Human), UniProt O60674). Put plainly: JAK2 Radioactive Kinase Assay. Type of assay: biochemical. As to conditions: read-out: JAK2 JH1% Inhibition @ 10 μM. The gist of the method:
as §1

The results in this text go back to patent US10508120B2, “TYK2 inhibitors and uses thereof” (Nimbus Lakshmi, Inc., priority 2017, dated 2019).

The structures appear in SMILES notation. Read-outs that look alike come from different tables or passages of the source. Some results are limits rather than exact numbers.

Tyk2 kinase domain (DH1), sequence (P29597 897-1176): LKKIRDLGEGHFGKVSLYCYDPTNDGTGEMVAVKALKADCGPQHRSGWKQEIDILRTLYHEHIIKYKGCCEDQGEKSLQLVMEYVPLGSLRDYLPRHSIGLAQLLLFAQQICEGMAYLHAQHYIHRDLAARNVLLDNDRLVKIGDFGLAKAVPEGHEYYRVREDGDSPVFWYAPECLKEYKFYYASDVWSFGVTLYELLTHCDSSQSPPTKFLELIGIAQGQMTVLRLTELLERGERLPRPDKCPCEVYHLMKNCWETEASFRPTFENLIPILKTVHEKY
human TYK2 (JH2domain-pseudokinase), sequence (P29597 556-888): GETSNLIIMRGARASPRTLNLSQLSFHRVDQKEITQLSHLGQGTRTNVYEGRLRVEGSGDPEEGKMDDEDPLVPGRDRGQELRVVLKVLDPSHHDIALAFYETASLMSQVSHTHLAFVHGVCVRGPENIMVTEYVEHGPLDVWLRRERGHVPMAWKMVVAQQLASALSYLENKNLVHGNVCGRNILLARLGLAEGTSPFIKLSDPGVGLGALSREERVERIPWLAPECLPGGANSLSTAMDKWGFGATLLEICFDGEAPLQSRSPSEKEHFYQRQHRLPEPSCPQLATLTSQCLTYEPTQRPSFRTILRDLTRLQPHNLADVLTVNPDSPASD
JAK2 kinase domain (JH1), sequence (O60674 849-1124): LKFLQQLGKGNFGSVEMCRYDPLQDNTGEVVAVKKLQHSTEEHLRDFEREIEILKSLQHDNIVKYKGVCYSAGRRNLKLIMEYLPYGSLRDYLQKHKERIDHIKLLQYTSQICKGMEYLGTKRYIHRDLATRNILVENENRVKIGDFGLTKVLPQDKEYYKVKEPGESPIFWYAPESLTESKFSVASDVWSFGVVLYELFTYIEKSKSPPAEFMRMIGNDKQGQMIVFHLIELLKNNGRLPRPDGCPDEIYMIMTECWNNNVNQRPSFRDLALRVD

With `CNc1cc(Nc2cccc([C@H]3CCCCO3)n2)nc2c(C(=O)N[C@@H]3CC[C@@H]3O)cnn12` [I-611], the Kd in assay [1] is less than 0.2 nM. Besides, the inhibition at 10 µM is less than 50% at Tyk2 kinase domain (DH1) (compound at 10 μM, ATP 10 μM) and less than 50% on JAK2 kinase domain (JH1) (compound at 10 μM, ATP 10 μM).
In the case of `CNc1cc(Nc2cccn(-c3ccnc(C)n3)c2=O)nc2c(C(N)=O)cnn12` [I-51], the Kd in assay [1] lay in the range of 0.2 to 1 nM. Moreover, the inhibition at 10 µM on Tyk2 kinase domain (DH1) (compound at 10 μM, ATP 10 μM) is less than 50%; on JAK2 kinase domain (JH1) (compound at 10 μM, ATP 10 μM) it was less than 50%.
As to `CNc1cc(Nc2cccn(-c3ccc(F)cc3)c2=O)nc2c(C(=O)NC3COC3)cnn12` [I-109], the Kd in assay [1] was greater than 10 nM. For the same compound, the inhibition at 10 µM is less than 50% at Tyk2 kinase domain (DH1) (compound at 10 μM, ATP 10 μM) and less than 50% on JAK2 kinase domain (JH1) (compound at 10 μM, ATP 10 μM).
In the case of `CNc1cc(Nc2cccn(C3CCCCC3)c2=O)nc2c(C(=O)N[C@H]3CC[C@@H]3O)cnn12` [I-1003], in assay [1], the Kd lay in the range of 0.2 to 1 nM. The inhibition at 10 µM at Tyk2 kinase domain (DH1) (10 μM compound, 10 μM ATP) was less than 50%; at JAK2 kinase domain (JH1) (10 μM compound, 10 μM ATP), less than 50%.
As to `CNc1cc(Nc2cccn([C@H]3CCC[C@@H](OC)C3)c2=O)nc2c(C(=O)N[C@@H]3CC[C@H]3OC)cnn12` [I-1126], the Kd in assay [1] was less than 0.2 nM. In addition, the inhibition at 10 µM on Tyk2 kinase domain (DH1) (10 μM compound, 10 μM ATP) was less than 50%; at JAK2 kinase domain (JH1) (10 μM compound, 10 μM ATP), less than 50%.
In turn, `CNc1cc(Nc2cccnc2OC(CO)CO)nc2c(C(=O)NC3CC3)cnn12` [I-199] returned a Kd in assay [1] of 0.2 to 1 nM. Besides, the inhibition at 10 µM on Tyk2 kinase domain (DH1) (compound at 10 μM, ATP 10 μM) is less than 50%; at JAK2 kinase domain (JH1) (compound at 10 μM, ATP 10 μM) it was less than 50%.
Take `CNc1cc(Nc2cccn([C@H]3C[C@@H]3F)c2=O)nc2c(C(=O)NCC3(CO)CC3)cnn12` (stereo in doubt) [I-1061, 5-((1-(2-fluorocyclopropyl)-2-oxo-1,2-dihydropyridin-3-yl)amino)-N-((1-(hydroxymethyl)cyclopropyl)methyl)-7-(methylamino)pyrazolo[1,5-a]pyrimidine-3-carboxamide]: in assay [1], the Kd is less than 0.2 nM. The inhibition at 10 µM at Tyk2 kinase domain (DH1) (10 μM compound, 10 μM ATP) is less than 50%; at JAK2 kinase domain (JH1) (10 μM compound, 10 μM ATP) it was less than 50%.
Turning to `CNc1cc(-c2c[nH]c3c(C4CCOCC4)cc(Cl)cc23)nc2c(C(=O)NC3CC3)cnn12` [I-197], the Kd in assay [1] was 0.2 to 1 nM. In addition, the inhibition at 10 µM at Tyk2 kinase domain (DH1) (compound at 10 μM, ATP 10 μM) is less than 50%; at JAK2 kinase domain (JH1) (compound at 10 μM, ATP 10 μM), less than 50%.
`CNc1cc(Nc2cccc(N3CC4(CCO4)C3)n2)nc2c(C(=O)N[C@@H]3CC[C@@H]3O)cnn12` [I-873]: the Kd in assay [1] lay within 1 to 10 nM. In addition, the inhibition at 10 µM was less than 50% at Tyk2 kinase domain (DH1) (10 μM compound, 10 μM ATP) and less than 50% on JAK2 kinase domain (JH1) (10 μM compound, 10 μM ATP).
Consider `CNc1cc(Nc2cccnc2O[C@H]2C[C@H](OC)C2)nc2c(C(=O)NC3CC3)cnn12` [I-188], for which, in assay [1], the Kd was less than 0.2 nM. The inhibition at 10 µM on Tyk2 kinase domain (DH1) (compound at 10 μM, ATP 10 μM) was less than 50%; on JAK2 kinase domain (JH1) (compound at 10 μM, ATP 10 μM), less than 50%.
`CNc1cc(Nc2cccn([C@H]3CC[C@H](OC)CC3)c2=O)nc2c(C(=O)N[C@@H]3COC[C@@H]3O)cnn12` [I-831] returned a Kd in assay [1] of less than 0.2 nM. In addition, the inhibition at 10 µM at Tyk2 kinase domain (DH1) (10 μM compound, 10 μM ATP) is less than 50%; on JAK2 kinase domain (JH1) (10 μM compound, 10 μM ATP), less than 50%.
Take `CNc1cc(Nc2cccn(-c3nc(C)co3)c2=O)nc2c(C(=O)NCC(C)CO)cnn12` (stereo not drawn) [I-663]: the Kd in assay [1] is less than 0.2 nM. The inhibition at 10 µM on Tyk2 kinase domain (DH1) (compound at 10 μM, ATP 10 μM) was less than 50%; on JAK2 kinase domain (JH1) (compound at 10 μM, ATP 10 μM), less than 50%.
The compound `CNc1cc(-c2cn(CCN3CCCCC3)c3ncccc23)nc2c(C(=O)N[C@H]3CC[C@H]3O)cnn12` [I-875] gave a Kd in assay [1] of less than 0.2 nM. The inhibition at 10 µM at Tyk2 kinase domain (DH1) (10 μM compound, 10 μM ATP) is less than 50%; at JAK2 kinase domain (JH1) (10 μM compound, 10 μM ATP) it was less than 50%.
Regarding `CNc1cc(Nc2cccn(C[C@H]3CCCCO3)c2=O)nc2c(C(=O)N[C@@H]3C[C@@H]3F)cnn12` [I-427], the Kd in assay [1] fell in the range of 0.2 to 1 nM. Moreover, the inhibition at 10 µM on Tyk2 kinase domain (DH1) (compound at 10 μM, ATP 10 μM) is less than 50%; at JAK2 kinase domain (JH1) (compound at 10 μM, ATP 10 μM) it was less than 50%.
Regarding `CNc1cc(Nc2cccn([C@H]3CC[C@H](O)CC3)c2=O)nc2c(C(N)=O)cnn12` [I-59], the Kd in assay [1] is less than 0.2 nM. Also, the inhibition at 10 µM was less than 50% on Tyk2 kinase domain (DH1) (compound at 10 μM, ATP 10 μM) and less than 50% at JAK2 kinase domain (JH1) (compound at 10 μM, ATP 10 μM).
In turn, `CNc1cc(Nc2cccn([C@@H]3CCC[C@@H](OC)C3)c2=O)nc2c(C(=O)N[C@@H]3C[C@@H]3F)cnn12` [I-1043] yielded a Kd in assay [1] of 0.2 to 1 nM. The inhibition at 10 µM was less than 50% on Tyk2 kinase domain (DH1) (10 μM compound, 10 μM ATP) and less than 50% on JAK2 kinase domain (JH1) (10 μM compound, 10 μM ATP).
Consider `CNc1cc(Nc2cccn(C3CCN(CCF)CC3)c2=O)nc2c(C(=O)N[C@H]3CC[C@@H]3O)cnn12` [I-899], for which the Kd in assay [1] is less than 0.2 nM. For the same compound, the inhibition at 10 µM was less than 50% on Tyk2 kinase domain (DH1) (10 μM compound, 10 μM ATP) and less than 50% at JAK2 kinase domain (JH1) (10 μM compound, 10 μM ATP).
`CNc1cc(Nc2cccn([C@@H]3CCCOC3)c2=O)nc2c(C(=O)N[C@@H]3CCC[C@@H](O)C3)cnn12` [I-735] had a Kd in assay [1] of less than 0.2 nM. In addition, the inhibition at 10 µM is less than 50% on Tyk2 kinase domain (DH1) (compound at 10 μM, ATP 10 μM) and less than 50% on JAK2 kinase domain (JH1) (compound at 10 μM, ATP 10 μM).

One may read the Kd as the constant that tells how readily two partners part at equilibrium. Low readings indicate tighter binding, high ones weaker binding. A word on the inhibition: it is the relative decrease from the control value, in per cent.
